Source: BindingDB's records for doi:10.1021/acs.jmedchem.2c02098 (University of Bologna, 2023)

What was measured:
[1] = target: Integrin alpha-L/beta-2 (LFA-1) (Homo sapiens); experiment: Agonist activity at alphaLbeta2 integrin receptor in human Jurkat E6.1 cells assessed as inhibition of ICAM-1-induced cell adhesion pre-incubated for 30 mins followed by 30 mins incubation in ICAM-1 coated wells by fluorescence plate reader assay
[2] = target: Integrin alpha4/beta1 (Homo sapiens); experiment: Agonist activity at alpha4beta1 integrin receptor in human Jurkat E6.1 cells assessed as inhibition of fibronectin-induced cell adhesion pre-incubated for 30 mins followed by 30 mins incubation in fibronectin coated wells by fluorescence plate reader assay
[3] = target: Integrin alpha4/beta1 (Homo sapiens); experiment: Agonist activity at alpha4beta1 integrin receptor in human Jurkat E6.1 cells assessed as inhibition of vascular cell adhesion molecule 1-induced cell adhesion pre-incubated for 30 mins followed by 30 mins incubation in vascular cell adhesion molecule 1 coated wells by fluorescence plate reader assay
[4] = target: Integrin alpha5/beta1 (Homo sapiens); experiment: Agonist activity at alpha5beta1 integrin receptor in human K562 cells assessed as inhibition of fibronectin-induced cell adhesion pre-incubated for 30 mins followed by 1 hr incubation in fibronectin coated wells by fluorescence plate reader assay

Cc1ccccc1NC(=O)N1C(=O)CC1CC(=O)NCC(=O)O (stereo not given)
EC50 [1]: > 5 µM
EC50 [2]: > 5 µM
EC50 [3]: > 5 µM

Cc1ccccc1NC(=O)N1C(=O)CC1CC(=O)O (stereo not given)
EC50 [4]: > 5 µM
EC50 [1]: > 5 µM
